Test results as given in publication PMC11926788, “Effect of SSR504734, a Selective Glycine Transporter Type 1 Inhibitor, on Seizure Thresholds, Neurotransmitter Levels, and Inflammatory Markers in Mice” (ACS Chemical Neuroscience, 2025).
Several values for one entry are separate records, joined by “and”; a condition that tells them apart may be missing. Identical values can stand only once. Counter-ions that a name gives are not always drawn.

Key:
hepatoma HepG2 cells = test: Hepatotoxicity, HepG2 cell viability; format: cell-based
Description: A series of in vitro ADME-Tox tests were performed for SSR504734 in order to estimate its drugability. The ADME-Tox parameters including permeability, plasma protein binding, metabolic stability, neurotoxicity, and hepatotoxicity were carried out as described previously.[31],[32] The ability of SSR504734 to penetrate through the biological membrane by passive diffusion was estimated by the Gentest Precoated PAMPA Plate System (Corning, Tewksbury, MA) and expressed as the permeability coefficient (Pe). The protein binding analysis was performed by using the commercial TRANSIL^XL PPB test, which mimics in vitro physiological plasma conditions where human serum albumin (HAS) and alpha-1-acid glycoprotein AGP are present in a 24:1 ratio. The human metabolism of SSR504734 was studied using human liver microsomes (HLMs) provided by Sigma-Aldrich. The hepatotoxicity and neurotoxicity were estimated in cellular models with the use of hepatoma HepG2 and neuroblastoma SH-SY5Y cell lines to perform the preliminary safety tests. The cells were incubated with SSR504734 at the concentration range of 0.1–100 μM. 1 μM cytostatic drug doxorubicin (DX) was used as the reference.
Figure 8 Effect of cytostatic drug doxorubicin (DX) and SSR504734 on (A) hepatoma HepG2 and (B) neuroblastoma SH-SY5Y cell lines viability after 72 h of incubation at 37 °C, 5% CO2. Data are expressed as means ± SD. Statistical analysis: ****p < 0.0001 vs negative control −1% DMSO in growth media (one-way ANOVA, followed by Dunnett’s post hoc test).
Figure S8. The effect of cytostatic drug doxorubicin and SSR504734 on (A) hepatoma
HepG2 and (B) neuroblastoma SH-SY5Y cell line viability after 72 h of incubation at 37 °C,
5% CO2. The IC50 values were calculated by GraphPad Prism 8.0.
(1 picture or pasted object on this page, not shown here)

[1] = Chimney test (motor coordination); format: in vivo, mice
Description: The impact of SSR504734 on motor coordination in mice was evaluated by using the chimney test. Each animal was individually placed inside a transparent Plexiglas tube with an inner diameter of 3 cm and a length of 30 cm. The tube was horizontally positioned on a table and shifted vertically once the mouse reached the opposite end. Within a 60 s time frame, the mouse was required to climb backward to escape from the tube. In order to minimize the number of animals used, a chimney test was carried out shortly before seizure tests.
(§1) Table S2. Time-course effect of SSR5504734 on neuromuscular strength and motor […]
(§2) Group Neuromuscular strength Impairment of motor
(§3) SSR504734 was dissolved in normal saline and injected i.p. at the dose of 30 mg/kg. Control animals received saline. The data are expressed as the mean ± SD of grip strengths measured in millinewtons per gram of mouse body weight (mN/g) from the grip-strength test assessing […]
(§4) coordination impairment in the chimney test. Each experimental group consisted of 12 animals. The grip-strength test results were analyzed using a one-way ANOVA with Dunnett’s post hoc test, while the data from the chimney test were statistically evaluated using Fisher’s exact probability test. *p<0.05 vs. control group.
(§5) Table S3. Effect of acute and 14-day treatment with SSR504734 on neuromuscular strength and motor coordination in mice
(§6) In acute studies, SSR504734 and sodium valproate (VPA; positive control) were injected i.p.
(§7) 60 and 15 min before the test, respectively. In subchronic studies, SSR504734 and VPA were injected i.p. every 24 h for 14 days. The last administration was made 60 and 15 min before the tests, respectively. Control animals received saline. Each experimental group consisted of 12 animals. The grip-strength test results were analyzed using a one-way ANOVA with […]
(§8) Fisher’s exact probability test.

[2] = Grip strength test (neuromuscular strength); format: in vivo, mice
Description: The effect of SSR504734 on neuromuscular strength was determined using the grip-strength apparatus (BioSeb, Chaville, France). The apparatus consists of a steel wire grid of 8 × 8 cm, connected to an isometric force transducer. Each mouse was held by the tail, allowing it to grasp the grid with its forepaws only and steadily pulled back until it released the grid. The maximum grip strength value (in newtons; N) was measured three times for each animal. The mean force was normalized to body weight and expressed in mN/g ± SD for each experimental group. In order to minimize the number of animals used, a grip-strength test was carried out shortly before seizure tests.
as §1, §2, §3, §4, §5, §6, §7, §8

rat GlyT1 = biological target: T1, rat GlyT1 (Rattus norvegicus, UniProt P28572); test: GlyT1 radioligand binding ([3H]glycine, rat brain cortex, Eurofins Panlabs)
T1 construct: tissue Eurofins Panlabs Discovery Services Taiwan, Ltd. (ran the assay); host or cells: Wistar rat brain cortex
T1 sequence (P28572 1-638): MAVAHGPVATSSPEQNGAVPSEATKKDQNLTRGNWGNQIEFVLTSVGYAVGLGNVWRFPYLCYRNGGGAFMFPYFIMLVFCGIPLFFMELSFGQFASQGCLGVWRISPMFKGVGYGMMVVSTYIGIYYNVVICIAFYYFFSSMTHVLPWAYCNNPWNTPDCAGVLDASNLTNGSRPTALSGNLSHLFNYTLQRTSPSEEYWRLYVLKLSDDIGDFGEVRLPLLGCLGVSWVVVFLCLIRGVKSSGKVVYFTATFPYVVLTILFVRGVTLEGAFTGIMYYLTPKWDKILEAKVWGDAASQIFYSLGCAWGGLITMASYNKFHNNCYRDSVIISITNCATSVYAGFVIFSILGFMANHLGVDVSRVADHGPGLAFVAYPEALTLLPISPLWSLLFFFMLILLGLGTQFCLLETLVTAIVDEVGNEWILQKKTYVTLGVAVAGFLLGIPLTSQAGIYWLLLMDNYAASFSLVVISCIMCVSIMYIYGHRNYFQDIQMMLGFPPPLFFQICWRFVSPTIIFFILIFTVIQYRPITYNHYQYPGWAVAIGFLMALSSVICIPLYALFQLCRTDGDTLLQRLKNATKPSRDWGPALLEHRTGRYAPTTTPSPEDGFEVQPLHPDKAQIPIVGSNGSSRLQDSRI

GlyT1 = conditions: in vitro assay; cited from earlier work
[3] = 14-day treatment, 10 mg/kg i.p.
[4] = 14-day treatment, 30 mg/kg i.p.
[5] = read-out: % inhibition of control specific binding

For `O=C(NC(c1ccccc1)C1CCCCN1)c1cccc(C(F)(F)F)c1Cl` [SSR504734, 2-chloro-N-[(S)-phenyl[(2S)-piperidin-2-yl]methyl]-3-trifluoromethyl benzamide monohydrochloride], the HepG2 cell viability (hepatoma HepG2 cells; 25 μM and higher concentrations, 72 h) was “significant decrease”, the IC50 (hepatoma HepG2 cells; Homo sapiens, HepG2, 72 h of incubation) was 14.8 µM and the “hepatotoxic properties (HepG2 viability)” value (hepatoma HepG2 cells; concentration range of 1–10 μM, 72 h) was “did not exhibit hepatotoxic properties”. The “Impairment of motor coordination” value ([1]; 30 mg/kg i.p., 15 min) was 0%, the “Impairment of motor coordination” value ([1]; 30 mg/kg i.p., 30 min) was 0% and the “Impairment of motor coordination” value ([1]; 30 mg/kg i.p., 60 min) was 0%. For the same compound, the “Impairment of motor coordination” value ([1]; 30 mg/kg i.p., 120 min) was 8.33%, the “Impairment of motor coordination” value ([1]; 30 mg/kg i.p., 240 min) was 0% and the “Impairment of motor coordination” value ([1]; 14-day treatment, 3 mg/kg i.p.) was 0%. For the same compound, the “Impairment of motor coordination” value [1, 3] was 0%, the “Impairment of motor coordination” value [1, 4] was 0% and the “Impairment of motor coordination” value ([1]; acute treatment, 10 mg/kg i.p.) was 0%. The “Impairment of motor coordination” value ([1]; acute treatment, 30 mg/kg i.p.) was 0%, the “Impairment of motor coordination” value ([1]; acute treatment, 50 mg/kg i.p., 50 mg/kg) was 33.3% and ~33% and the Neuromuscular strength ([2]; 30 mg/kg i.p., 30 min) was 30.33 ± 5.38 mN/g. For the same compound, the Neuromuscular strength ([2]; 30 mg/kg i.p., 60 min) was 33.63± 4.94 mN/g, the Neuromuscular strength ([2]; 30 mg/kg i.p., 120 min) was 33.49 ± 3.76 mN/g and the Neuromuscular strength ([2]; 30 mg/kg i.p., 240 min) was 32.13 ± 3.42 mN/g. It also gave a Neuromuscular strength ([2]; 14-day treatment, 3 mg/kg i.p.) of 25.02 ± 5.35 mN/kg, a Neuromuscular strength [2, 3] of 23.48 ± 5.98 mN/kg and a Neuromuscular strength [2, 4] of 27.76 ± 6.00 mN/kg. It also gave a Neuromuscular strength ([2]; acute treatment, 10 mg/kg i.p.) of 31.15 ± 5.55 mN/kg, a Neuromuscular strength ([2]; acute treatment, 30 mg/kg i.p.) of 31.00 ± 9.46 mN/kg and a Neuromuscular strength ([2]; acute treatment, 50 mg/kg i.p.) of 30.31 ± 5.08 mN/kg. The “% inhibition of control specific binding” value (rat GlyT1; 0.1 μM, rat brain cortex) was “moderate interaction”, the inhibition at 0.1 µM (rat GlyT1; [5]) was 42% and the inhibition at 20 µM (rat GlyT1; [5]) was 52%. The inhibition at 100 µM (rat GlyT1; [5]) was 62% and the “IC50 for GlyT1 inhibition” value (GlyT1) was 7.8 (±2.6) ng/mL.
